Our source for the IC50 values is patent publication US9586951B2 (FUJIFILM Corporation, priority 2013, dated 2017).

In this assay the target is T1, ATM (Homo sapiens, UniProt Q13315).
T1 construct: detecting phosphorylation of Chk2 in a human non-small cell lung cancer cell line NCI-H460 (ATCC company); host or cells: NCI-H460 human non-small cell lung cancer cells
T1 sequence (Q13315 whole entry): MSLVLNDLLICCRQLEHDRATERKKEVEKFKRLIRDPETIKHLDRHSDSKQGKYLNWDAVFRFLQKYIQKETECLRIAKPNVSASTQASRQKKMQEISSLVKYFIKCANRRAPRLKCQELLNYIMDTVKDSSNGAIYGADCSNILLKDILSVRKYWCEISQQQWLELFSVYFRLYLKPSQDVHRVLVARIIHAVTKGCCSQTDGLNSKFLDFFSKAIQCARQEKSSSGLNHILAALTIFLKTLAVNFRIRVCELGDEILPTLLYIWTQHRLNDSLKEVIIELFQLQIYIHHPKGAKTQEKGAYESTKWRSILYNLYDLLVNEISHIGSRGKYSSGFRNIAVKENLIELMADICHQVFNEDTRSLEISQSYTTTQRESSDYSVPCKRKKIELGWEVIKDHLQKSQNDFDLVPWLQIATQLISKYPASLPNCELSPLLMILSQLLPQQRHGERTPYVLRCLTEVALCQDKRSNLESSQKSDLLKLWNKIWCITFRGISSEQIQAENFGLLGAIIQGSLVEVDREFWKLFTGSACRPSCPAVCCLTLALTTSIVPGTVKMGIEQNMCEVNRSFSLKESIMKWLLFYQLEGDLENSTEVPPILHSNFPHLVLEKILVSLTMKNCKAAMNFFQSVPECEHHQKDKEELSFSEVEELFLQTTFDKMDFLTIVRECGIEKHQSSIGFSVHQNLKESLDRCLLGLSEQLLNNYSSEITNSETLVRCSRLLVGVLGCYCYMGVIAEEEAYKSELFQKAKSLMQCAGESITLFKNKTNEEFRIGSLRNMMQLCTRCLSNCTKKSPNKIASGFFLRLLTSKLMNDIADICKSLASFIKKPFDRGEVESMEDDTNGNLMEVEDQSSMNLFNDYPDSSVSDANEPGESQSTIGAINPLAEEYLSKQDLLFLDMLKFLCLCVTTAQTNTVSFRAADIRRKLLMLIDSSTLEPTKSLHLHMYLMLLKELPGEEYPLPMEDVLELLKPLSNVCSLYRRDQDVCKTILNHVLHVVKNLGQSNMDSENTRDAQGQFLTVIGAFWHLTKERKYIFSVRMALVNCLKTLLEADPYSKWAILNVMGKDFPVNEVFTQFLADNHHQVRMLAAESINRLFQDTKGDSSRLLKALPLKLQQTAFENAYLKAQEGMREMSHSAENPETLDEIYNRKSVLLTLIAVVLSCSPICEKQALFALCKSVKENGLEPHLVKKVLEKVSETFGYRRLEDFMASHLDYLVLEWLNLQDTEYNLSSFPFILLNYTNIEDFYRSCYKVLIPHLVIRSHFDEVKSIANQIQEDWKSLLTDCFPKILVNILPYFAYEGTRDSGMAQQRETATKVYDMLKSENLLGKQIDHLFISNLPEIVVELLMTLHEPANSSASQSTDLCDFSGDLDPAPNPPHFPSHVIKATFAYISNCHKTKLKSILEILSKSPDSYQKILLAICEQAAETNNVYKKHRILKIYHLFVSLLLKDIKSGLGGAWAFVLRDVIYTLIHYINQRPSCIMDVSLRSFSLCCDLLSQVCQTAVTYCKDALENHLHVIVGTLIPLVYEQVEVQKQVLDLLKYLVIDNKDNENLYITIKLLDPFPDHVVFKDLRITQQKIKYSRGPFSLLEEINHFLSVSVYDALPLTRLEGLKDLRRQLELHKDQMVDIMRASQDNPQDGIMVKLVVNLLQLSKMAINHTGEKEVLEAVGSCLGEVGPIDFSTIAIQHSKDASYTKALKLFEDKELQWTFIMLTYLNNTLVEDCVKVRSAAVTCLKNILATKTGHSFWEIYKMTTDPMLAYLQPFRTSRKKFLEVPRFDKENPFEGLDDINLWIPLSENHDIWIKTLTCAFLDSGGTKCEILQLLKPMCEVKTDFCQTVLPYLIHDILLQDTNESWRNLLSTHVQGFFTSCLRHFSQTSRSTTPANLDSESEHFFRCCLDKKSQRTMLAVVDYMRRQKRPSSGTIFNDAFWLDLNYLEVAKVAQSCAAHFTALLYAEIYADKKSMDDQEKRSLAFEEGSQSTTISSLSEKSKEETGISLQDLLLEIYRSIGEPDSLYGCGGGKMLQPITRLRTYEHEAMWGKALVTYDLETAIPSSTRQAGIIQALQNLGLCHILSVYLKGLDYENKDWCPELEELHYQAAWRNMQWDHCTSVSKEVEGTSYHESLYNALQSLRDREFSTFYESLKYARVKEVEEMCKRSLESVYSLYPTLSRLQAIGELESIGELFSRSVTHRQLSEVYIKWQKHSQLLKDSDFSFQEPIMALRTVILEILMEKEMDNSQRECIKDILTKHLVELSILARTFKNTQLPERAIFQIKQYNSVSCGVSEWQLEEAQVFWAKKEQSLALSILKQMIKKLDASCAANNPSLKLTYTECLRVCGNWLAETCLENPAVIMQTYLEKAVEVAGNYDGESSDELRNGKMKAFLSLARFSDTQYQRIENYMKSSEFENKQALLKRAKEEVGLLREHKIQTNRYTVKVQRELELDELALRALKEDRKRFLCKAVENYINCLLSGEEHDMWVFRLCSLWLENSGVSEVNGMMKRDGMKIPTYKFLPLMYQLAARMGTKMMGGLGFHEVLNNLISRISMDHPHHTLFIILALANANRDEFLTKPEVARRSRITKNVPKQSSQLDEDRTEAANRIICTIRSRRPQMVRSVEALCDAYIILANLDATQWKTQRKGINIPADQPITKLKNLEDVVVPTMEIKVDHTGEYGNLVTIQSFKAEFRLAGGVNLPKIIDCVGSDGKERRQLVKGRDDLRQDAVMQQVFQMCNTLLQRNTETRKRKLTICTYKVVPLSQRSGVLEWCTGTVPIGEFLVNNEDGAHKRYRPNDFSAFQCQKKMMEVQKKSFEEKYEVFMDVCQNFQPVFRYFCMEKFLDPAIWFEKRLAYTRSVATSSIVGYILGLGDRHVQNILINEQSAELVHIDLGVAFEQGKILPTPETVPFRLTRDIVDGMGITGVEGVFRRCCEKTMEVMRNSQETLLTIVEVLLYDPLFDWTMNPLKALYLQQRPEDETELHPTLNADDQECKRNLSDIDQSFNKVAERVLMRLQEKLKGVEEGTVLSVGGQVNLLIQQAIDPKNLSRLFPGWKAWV
The experiment in a line: ATM inhibition test (phosphorylation of Chk2 generated by ionizing radiation, AlphaScreen SureFire). It counts as cell-based. The settings on record: phosphorylated Chk2 in NCI-H460 cells, ionizing radiation 8Gy, 1 hour after test compound treatment; read-out: ATM inhibitory activity. Put shortly: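 Phosphorylated Chk2 read by AlphaScreen SureFire in human non-small cell lung cancer NCI-H460 cells, 1 hour after 8Gy ionizing radiation at 37° C. Compound added 1 hour before irradiation. Percent inhibition normalised between irradiated and non-irradiated drug-untreated signals.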
(In general: Bead proximity is the source of the signal in Alpha formats.)
Turning to `CNc1ccc2c(c1)Cc1cccc(-c3cc(N4CCOCC4)cc(=O)[nH]3)c1S2` [Example 3-10, 6-(7-(methylamino)-9H-thioxanthen-4-yl)-4-morpholinopyridin-2(1H)-one], the IC50 is 0.5 to 2 µM.

As for `CC(Nc1ccc2c(c1)Cc1cccc(-c3cc(N4CCOCC4)cc(=O)[nH]3)c1O2)c1cc(C#N)ncn1` (centres unmarked) [Example 2-14-60, 6-(1-((5-(4-Morpholino-6-oxo-1,6-dihydropyridin-2-yl)-9H-xanthen-2-yl)amino)ethyl)pyrimidine-4-carbonitrile], the IC50 fell in the range of 0.1 to 0.5 µM.

In the case of `CN1CCC(CNc2ccc3c(c2)Sc2cccc(-c4cc(N5CCOCC5)cc(=O)[nH]4)c2S3)CC1` [Example 1-12-31, 6-(7-(((1-Methylpiperidin-4-yl)methyl)amino)thianthren-1-yl)-4-morpholino pyridin-2(1H)-one], the IC50 was 0.1 to 0.5 µM.

With `Cc1cccc(C(C)Nc2ccc3c(c2)Cc2ccnc(-c4cc(N5CCOCC5)cc(=O)[nH]4)c2O3)n1` (centres unmarked) [Example 2-42-6, 6-(7-((1-(6-Methylpyridin-2-yl)ethyl)amino)-5H-chromeno[2,3-c]pyridin-1-yl)-4-morpholinopyridin-2(1H)-one], the IC50 lay in the range of 0.1 to 0.5 µM. On to `O=c1cc(N2CCOCC2)cc(-c2cccc3c2Oc2ccc(NC4CCN(Cc5ccsc5)CC4)cc2C3)[nH]1` [Example 2-28-26, 4-Morpholino-6-(7-((1-(thiophen-3-ylmethyl)piperidin-4-yl)amino)-9H-xanthen-4-yl)pyridin-2(1H)-one], for which the IC50 was 0.1 to 0.5 µM. For the compound `CC(CN1CCOCC1)C(=O)Nc1ccc2c(c1)Sc1cccc(-c3cc(N4CCOCC4)cc(=O)[nH]3)c1S2` (centres unmarked) [Example 8-3, 2-Methyl-3-morpholino-N-(6-(4-morpholino-6-oxo-1,6-dihydropyridin-2-yl)thianthren-2-yl)propanamide], the IC50 fell in the range of 0.5 to 2 µM. In the case of `CC(Nc1ccc2c(c1)Cc1cccc(-c3cc(N4CCOCC4)cc(=O)[nH]3)c1O2)c1nccs1` (centres unmarked) [Example 2-14-43, 4-Morpholino-6-(7-((1-(thiazol-2-yl)ethyl)amino)-9H-xanthen-4-yl)pyridin-2 (1H)-one] it was 0.1 to 0.5 µM; in that of `O=c1cc(N2CCOCC2)cc(-c2cccc3c2Sc2ccc(NC(CN4CCOCC4)CN4CCOCC4)cc2S3)[nH]1` [Example 1-51-12, 6-(7-((1,3-Dimorpholinopropan-2-yl)amino)thianthren-1-yl)-4-morpholino pyridin-2 (1H)-one], under 0.1 µM. For `Nc1ccc2c(c1)Cc1c(F)ccc(-c3cc(N4CCOCC4)cc(=O)[nH]3)c1O2` [Example 2-43, 6-(7-Amino-1-fluoro-9H-xanthen-4-yl)-4-morpholinopyridin-2(1H)-one], the IC50 was 0.5 to 2 µM. The figure for `Cc1ccc(C(CC(C)C)Nc2ccc3c(c2)Sc2cccc(-c4cc(N5CCOCC5)cc(=O)[nH]4)c2S3)nc1` (centres unmarked) [Example 1-12-120, 6-(7-((3-Methyl-1-(5-methylpyridin-2-yl)butyl)amino)thianthren-1-yl)-4-morpholino pyridin-2(1H)-one] is 0.1 to 0.5 µM. In the case of `CC(C(=O)Nc1ccc2c(c1)Sc1cccc(-c3cc(N4CCOCC4)cc(=O)[nH]3)c1S2)N1CCOCC1` (centres unmarked) [Example 1-8, 2-Morpholino-N-(6-(4-morpholino-6-oxo-1,6-dihydropyridin-2-yl)thianthren-2-yl)propanamide] it was 0.5 to 2 µM. The figure for `N#Cc1ccc(CCN2CCC(Nc3ccc4c(c3)Cc3cccc(-c5cc(N6CCOCC6)cc(=O)[nH]5)c3O4)CC2)cc1` [Example 2-30-19, 4-(2-(4-((5-(4-Morpholino-6-oxo-1,6-dihydropyridin-2-yl)-9H-xanthen-2-yl)amino)piperidin-1-yl)ethyl) benzonitrile] is 0.5 to 2 µM.

Turning to `CC1CC(C)CN(CC(CO)Nc2ccc3c(c2)Sc2cccc(-c4cc(N5CCOCC5)cc(=O)[nH]4)c2S3)C1` (centres unmarked) [Example 1-37-5, 6-(7-((1-(3,5-Dimethylpiperidin-1-yl)-3-hydroxypropan-2-yl)amino)thianthren-1-yl)-4-morpholino pyridin-2 (1H)-one], the IC50 was in the range of 0.1 to 0.5 µM. The figure for `CC(C)Nc1cncc(CNc2ccc3c(c2)Cc2cccc(-c4cc(N5CCOCC5)cc(=O)[nH]4)c2O3)c1` [Example 2-2-75, 6-(7-(((5-(Isopropylamino)pyridin-3-yl)methyl)amino)-9H-xanthen-4-yl)-4-morpholino pyridin-2(1H)-one] is 0.1 to 0.5 µM; for `O=c1cc(N2CCOCC2)cc(-c2cccc3c2Oc2ccc(NC4CCN(CC(F)(F)F)CC4)cc2C3)[nH]1` [Example 2-34, 4-Morpholino-6-(7-((1-(2,2,2-trifluoroethyl)piperidin-4-yl)amino)-9H-xanthen-4-yl)pyridin-2(1H)-one] it is 0.1 to 0.5 µM. On to `CCC(Nc1ccc2c(c1)Sc1cccc(-c3cc(N4CCOCC4)cc(=O)[nH]3)c1S2)[C@H](CC)N1CCOCC1` (stereo partly drawn) [Example 1-21-4, 4-Morpholino-6-(7-(((4S)-4-morpholinohexan-3-yl)amino)thianthren-1-yl) pyridin-2(1H)-one], for which the IC50 lay in the range of 0.1 to 0.5 µM. In the case of `Cc1ccc(C(Nc2ccc3c(c2)Sc2cccc(-c4cc(N5CCOCC5)cc(=O)[nH]4)c2S3)[C@@H]2CCN(C)C2)nc1` (single isomer, unassigned) [Example 1-56-16] it was under 0.1 µM; in that of `Cc1cnc(C(CCN(C)C)Nc2ccc3c(c2)Sc2cccc(-c4cc(N5CCOCC5)cc(=O)[nH]4)c2O3)cn1` (single isomer, unassigned) [Example 10-7, 6-(8-((3-(Dimethylamino)-1-(5-methylpyrazin-2-yl)propyl)amino)phenoxathiin-4-yl)-4-morpholinopyridin-2(1H)-one], under 0.1 µM. In the case of `Cc1ccnc(C(CO)Nc2ccc3c(c2)Sc2cccc(-c4cc(N5CCOCC5)cc(=O)[nH]4)c2S3)c1` (single isomer, unassigned) [Example 1-12-138-1, 6-(7-((2-hydroxy-1-(4-methylpyridin-2-yl)ethyl)amino)thianthren-1-yl)-4-morpholinopyridin-2(1H)-one] it was 0.1 to 0.5 µM.

On to `O=c1cc(N2CCOCC2)cc(-c2nccc3c2Oc2ccc(NCc4cccc(Cl)n4)cc2C3)[nH]1` [Example 2-41-8, 6-(7-(((6-Chloropyridin-2-yl)methlyl)anlino)-5H-chromeno [2,3-c]pyridin-1-yl)-4-morpholino pyridin-2(1H)-one], for which the IC50 lay within 0.1 to 0.5 µM.

On to `O=c1cc(N2CCOCC2)cc(-c2cccc3c2Sc2ccc(NCc4cnccn4)cc2C3)[nH]1` [Example 3-8-5, 4-Morpholino-6-(7-((pyrazin-2-ylmethyl)amino)-9H-thioxanthen-4-yl)pyridin-2 (1H)-one], for which the IC50 is 0.5 to 2 µM. In the case of `COc1ccnc(C(C)Nc2ccc3c(c2)Cc2ccnc(-c4cc(N5CCOCC5)cc(=O)[nH]4)c2O3)c1` (centres unmarked) [Example 2-41-14] it was 0.1 to 0.5 µM; in that of `Cc1cccc(CNc2ccc3c(c2)Cc2cccc(-c4nc(N5CCOCC5)cc(=O)[nH]4)c2O3)n1` [Example 2-52-1, 2-(7-(((6-Methylpyridin-2-yl)methyl)amino)-9H-xanthen-4-yl)-6-morpholino pyrimidine-4(3H)-one], 0.1 to 0.5 µM; in that of `CCCCC(Nc1ccc2c(c1)Sc1cccc(-c3cc(N4CCOCC4)cc(=O)[nH]3)c1S2)[C@H](C)N1CCOCC1` (stereo partly drawn) [Example 1-21-2, 4-Morpholino-6-(7-(((2S)-2-morpholinoheptan-3-yl)amino)thianthren-1-yl) pyridin-2(1H)-one], 0.1 to 0.5 µM. The figure for `CC(CN1CCN(C)CC1)Nc1ccc2c(c1)Sc1cccc(-c3cc(N4CCOCC4)cc(=O)[nH]3)c1S2` (single isomer, unassigned) [Example 1-13-3-3, 6-(7-((1-(4-methylpiperazin-1-yl)propan-2-yl)amino)thianthren-1-yl)-4-morpholinopyridin-2(1H)-one] is 0.1 to 0.5 µM.

In the case of `COc1ncccc1CNc1ccc2c(c1)Cc1cccc(-c3cc(N4CCOCC4)cc(=O)[nH]3)c1O2` [Example 2-13-12, 6-(7-(((2-Methoxypyridin-3-yl)methyl)amino)-9H-xanthen-4-yl)-4-morpholino pyridin-2(1H)-one], the IC50 lay within 0.1 to 0.5 µM. The figure for `CC(Nc1ccc2c(c1)Cc1cccc(-c3cc(N4CCOCC4)cc(=O)[nH]3)c1O2)c1cccs1` (centres unmarked) [Example 2-14-44, 4-Morpholino-6-(7-((1-(thiophen-2-yl)ethyl)amino)-9H-xanthen-4-yl) pyridin-2(1H)-one] is 0.1 to 0.5 µM; for `COc1cccc(CCN2CCC(Nc3ccc4c(c3)Cc3cccc(-c5cc(N6CCOCC6)cc(=O)[nH]5)c3O4)CC2)c1` [Example 2-30-11, 6-(7-((1-(3-Methoxyphenethyl)piperidin-4-yl)amino)-9H-xanthen-4-yl)-4-morpholino pyridin-2 (1H)-one] it is 0.1 to 0.5 µM; for `CC(C)N1CCC(Nc2ccc3c(c2)Sc2cccc(-c4cc(N5CCOCC5)cc(=O)[nH]4)c2S3)CC1` [Example 1-12-116, 6-(7-((1-Isopropylpiperidin-4-yl)amino)thianthren-1-yl)-4-morpholino pyridin-2(1H)-one] it is 0.1 to 0.5 µM. In the case of `CCCC(Nc1ccc2c(c1)Sc1cccc(-c3cc(N4CCOCC4)cc(=O)[nH]3)c1S2)c1cncc(OC)c1` (centres unmarked) [Example 1-12-26, 6-(7-((1-(5-Methoxypyridin-3-yl)butyl)amino)thianthren-1-yl)-4-morpholino pyridin-2 (1H)-one] it was 0.1 to 0.5 µM.

Turning to `O=c1cc(N2CCOCC2)cc(-c2cccc3c2Oc2ccc(NC4CCCN(CCc5ccccc5)CC4)cc2C3)[nH]1` (centres unmarked) [Example 2-19-5, 4-Morpholino-6-(7-((1-phenethylazepan-4-yl)amino)-9H-xanthen-4-yl)pyridin-2(1H)-one], the IC50 was 0.1 to 0.5 µM.

Take `N#Cc1ccc(CNc2ccc3c(c2)Sc2cccc(-c4cc(N5CCOCC5)cc(=O)[nH]4)c2S3)s1` [Example 1-12-51, 5-(((6-(4-Morpholino-6-oxo-1,6-dihydropyridin-2-yl)thianthren-2-yl)amino)methyl)thiophene-2-carbonitrile]: the IC50 was 0.1 to 0.5 µM.
